Measurements taken from PubChem BioAssay (NCI).
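1) Cells in 96-well plates. 2) Compound, 48 h, 5 concentrations. 3) Linear interpolation between surrounding doses. 4) Unreached endpoint = highest concentration. TGI: concentration producing complete growth inhibition.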

What was measured:
Assay in all cases: NCI tumour cell line growth inhibition, 48 h
OVCAR-8 ovarian = test system: OVCAR-8 ovarian
SK-OV-3 ovarian = test system: SK-OV-3 ovarian
K-562 leukemia = test system: K-562 leukemia
LXFL 529 NSCLC = test system: LXFL 529 NSCLC
SNB-19 CNS = test system: SNB-19 CNS
SF-295 CNS = test system: SF-295 CNS
HL-60(TB) leukemia = test system: HL-60(TB) leukemia
M14 melanoma = test system: M14 melanoma
SK-MEL-5 melanoma = test system: SK-MEL-5 melanoma
HT29 colon = test system: HT29 colon
A498 renal = test system: A498 renal
NCI-H226 lung = test system: NCI-H226 lung
COLO 205 colon = test system: COLO 205 colon
HOP-92 NSCLC = test system: HOP-92 NSCLC
OVCAR-3 ovarian = test system: OVCAR-3 ovarian
SNB-75 CNS = test system: SNB-75 CNS
CCRF-CEM leukemia = test system: CCRF-CEM leukemia
LOX IMVI melanoma = test system: LOX IMVI melanoma
NCI-H460 lung = test system: NCI-H460 lung
SN12C renal = test system: SN12C renal
M19-MEL melanoma = test system: M19-MEL melanoma
SF-268 CNS = test system: SF-268 CNS
UO-31 renal = test system: UO-31 renal
U251 CNS = test system: U251 CNS
EKVX NSCLC = test system: EKVX NSCLC
SR leukemia = test system: SR leukemia
MALME-3M melanoma = test system: MALME-3M melanoma
SF-539 CNS = test system: SF-539 CNS
OVCAR-5 ovarian = test system: OVCAR-5 ovarian
RXF 393 renal = test system: RXF 393 renal
DMS 273 small cell lung = test system: DMS 273 small cell lung
A549 NSCLC = test system: A549 NSCLC
UACC-257 melanoma = test system: UACC-257 melanoma
NCI-H522 lung = test system: NCI-H522 lung
SNB-78 CNS = test system: SNB-78 CNS
KM20L2 colon = test system: KM20L2 colon
HCT-116 colon = test system: HCT-116 colon
SK-MEL-2 melanoma = test system: SK-MEL-2 melanoma
ACHN renal = test system: ACHN renal
NCI-H23 lung = test system: NCI-H23 lung
HCC-2998 colon = test system: HCC-2998 colon
SK-MEL-28 melanoma = test system: SK-MEL-28 melanoma
MOLT-4 leukemia = test system: MOLT-4 leukemia
TK-10 renal = test system: TK-10 renal
HOP-62 NSCLC = test system: HOP-62 NSCLC
IGROV1 ovarian = test system: IGROV1 ovarian
KM12 colon = test system: KM12 colon
UACC-62 melanoma = test system: UACC-62 melanoma
SW-620 colon = test system: SW-620 colon
786-0 renal = test system: 786-0 renal
RPMI-8226 leukemia = test system: RPMI-8226 leukemia
HCT-15 colon = test system: HCT-15 colon
HOP-18 NSCLC = test system: HOP-18 NSCLC
DMS 114 small cell lung = test system: DMS 114 small cell lung
CAKI-1 renal = test system: CAKI-1 renal
DLD-1 colon = test system: DLD-1 colon
OVCAR-4 ovarian = test system: OVCAR-4 ovarian
XF 498 CNS = test system: XF 498 CNS

## NNC(=O)C(=O)N/N=C(\CCC(=O)Nc1ccc(Cl)cc1)Cc1nc2ccccc2s1
OVCAR-8 ovarian
  TGI: > 100 µM
SK-OV-3 ovarian
  TGI: > 100 µM
K-562 leukemia
  TGI: > 100 µM
LXFL 529 NSCLC
  TGI: > 100 µM
SNB-19 CNS
  TGI: > 100 µM
SF-295 CNS
  TGI: > 100 µM
HL-60(TB) leukemia
  TGI: > 100 µM
M14 melanoma
  TGI: 66.5 µM
SK-MEL-5 melanoma
  TGI: 43.6 µM
HT29 colon
  TGI: > 100 µM
A498 renal
  TGI: > 100 µM
NCI-H226 lung
  TGI: > 100 µM
COLO 205 colon
  TGI: > 100 µM
HOP-92 NSCLC
  TGI: > 100 µM
OVCAR-3 ovarian
  TGI: > 100 µM
SNB-75 CNS
  TGI: > 100 µM
CCRF-CEM leukemia
  TGI: 77.1 µM
LOX IMVI melanoma
  TGI: 67.5 µM
NCI-H460 lung
  TGI: > 100 µM
SN12C renal
  TGI: > 100 µM
M19-MEL melanoma
  TGI: 36.9 µM
SF-268 CNS
  TGI: > 100 µM
UO-31 renal
  TGI: > 100 µM
U251 CNS
  TGI: > 100 µM
EKVX NSCLC
  TGI: > 100 µM
SR leukemia
  TGI: 68.5 µM
MALME-3M melanoma
  TGI: > 100 µM
SF-539 CNS
  TGI: 90.4 µM
OVCAR-5 ovarian
  TGI: > 100 µM
RXF 393 renal
  TGI: > 100 µM
DMS 273 small cell lung
  TGI: 67.8 µM
A549 NSCLC
  TGI: > 100 µM
UACC-257 melanoma
  TGI: > 100 µM
NCI-H522 lung
  TGI: 40.8 µM
SNB-78 CNS
  TGI: > 100 µM
KM20L2 colon
  TGI: > 100 µM
HCT-116 colon
  TGI: > 100 µM
SK-MEL-2 melanoma
  TGI: > 100 µM
ACHN renal
  TGI: > 100 µM
NCI-H23 lung
  TGI: > 100 µM
HCC-2998 colon
  TGI: > 100 µM
SK-MEL-28 melanoma
  TGI: > 100 µM
MOLT-4 leukemia
  TGI: > 100 µM
TK-10 renal
  TGI: > 100 µM
HOP-62 NSCLC
  TGI: > 100 µM
IGROV1 ovarian
  TGI: 51.3 µM
KM12 colon
  TGI: > 100 µM
UACC-62 melanoma
  TGI: 54.3 µM
SW-620 colon
  TGI: > 100 µM
786-0 renal
  TGI: > 100 µM
RPMI-8226 leukemia
  TGI: > 100 µM
HCT-15 colon
  TGI: > 100 µM
HOP-18 NSCLC
  TGI: 38.7 µM
DMS 114 small cell lung
  TGI: 54.8 µM
CAKI-1 renal
  TGI: > 100 µM

## C[C@]12CCC(=O)C=C1CC[C@@H]1C2CC[C@]2(C)c3nn(-c4ccccc4)nc3CC12 (some centres undefined)
OVCAR-8 ovarian
  TGI: > 100 µM
SK-OV-3 ovarian
  TGI: > 100 µM
K-562 leukemia
  TGI: > 100 µM
LXFL 529 NSCLC
  TGI: > 100 µM
SNB-19 CNS
  TGI: > 100 µM
SF-295 CNS
  TGI: > 100 µM
HL-60(TB) leukemia
  TGI: > 100 µM
M14 melanoma
  TGI: > 100 µM
SK-MEL-5 melanoma
  TGI: > 100 µM
HT29 colon
  TGI: > 100 µM
A498 renal
  TGI: > 100 µM
NCI-H226 lung
  TGI: > 100 µM
COLO 205 colon
  TGI: > 100 µM
HOP-92 NSCLC
  TGI: > 100 µM
OVCAR-3 ovarian
  TGI: > 100 µM
SNB-75 CNS
  TGI: > 100 µM
CCRF-CEM leukemia
  TGI: > 100 µM
LOX IMVI melanoma
  TGI: > 100 µM
NCI-H460 lung
  TGI: > 100 µM
SN12C renal
  TGI: > 100 µM
M19-MEL melanoma
  TGI: > 100 µM
SF-268 CNS
  TGI: > 100 µM
DLD-1 colon
  TGI: > 100 µM
UO-31 renal
  TGI: > 100 µM
U251 CNS
  TGI: > 100 µM
EKVX NSCLC
  TGI: > 100 µM
MALME-3M melanoma
  TGI: > 100 µM
SF-539 CNS
  TGI: > 100 µM
OVCAR-4 ovarian
  TGI: > 100 µM
OVCAR-5 ovarian
  TGI: > 100 µM
RXF 393 renal
  TGI: > 100 µM
DMS 273 small cell lung
  TGI: > 100 µM
A549 NSCLC
  TGI: > 100 µM
UACC-257 melanoma
  TGI: > 100 µM
XF 498 CNS
  TGI: > 100 µM
SNB-78 CNS
  TGI: > 100 µM
KM20L2 colon
  TGI: > 100 µM
HCT-116 colon
  TGI: > 100 µM
SK-MEL-2 melanoma
  TGI: > 100 µM
ACHN renal
  TGI: > 100 µM
NCI-H23 lung
  TGI: > 100 µM
HCC-2998 colon
  TGI: > 100 µM
SK-MEL-28 melanoma
  TGI: > 100 µM
MOLT-4 leukemia
  TGI: > 100 µM
TK-10 renal
  TGI: > 100 µM
HOP-62 NSCLC
  TGI: > 100 µM
IGROV1 ovarian
  TGI: > 100 µM
KM12 colon
  TGI: > 100 µM
UACC-62 melanoma
  TGI: > 100 µM
SW-620 colon
  TGI: > 100 µM
786-0 renal
  TGI: > 100 µM
RPMI-8226 leukemia
  TGI: > 100 µM
HCT-15 colon
  TGI: > 100 µM
DMS 114 small cell lung
  TGI: > 100 µM
